Test results taken from BindingDB's records for patent US20240294509 (Euregen Biopharma Co., 2024).

Legend:
[1] = target: Poly [ADP-ribose] polymerase 1 (Homo sapiens, UniProt P09874); experiment: Inhibition of Compounds on PARP1/7 Enzyme Activity
Source text: (§1) Fit the dose-response data with standard dilutions using Prism GraphPad software and calculate the concentration required to achieve 5000 inhibition of PARP1 or PARP7 enzyme activity (IC50).

[2] = target: T1, Protein mono-ADP-ribosyltransferase TIPARP (Homo sapiens, UniProt Q7Z3E1); experiment: Inhibition of Compounds on PARP1/7 Enzyme Activity
T1 sequence (Q7Z3E1 whole entry): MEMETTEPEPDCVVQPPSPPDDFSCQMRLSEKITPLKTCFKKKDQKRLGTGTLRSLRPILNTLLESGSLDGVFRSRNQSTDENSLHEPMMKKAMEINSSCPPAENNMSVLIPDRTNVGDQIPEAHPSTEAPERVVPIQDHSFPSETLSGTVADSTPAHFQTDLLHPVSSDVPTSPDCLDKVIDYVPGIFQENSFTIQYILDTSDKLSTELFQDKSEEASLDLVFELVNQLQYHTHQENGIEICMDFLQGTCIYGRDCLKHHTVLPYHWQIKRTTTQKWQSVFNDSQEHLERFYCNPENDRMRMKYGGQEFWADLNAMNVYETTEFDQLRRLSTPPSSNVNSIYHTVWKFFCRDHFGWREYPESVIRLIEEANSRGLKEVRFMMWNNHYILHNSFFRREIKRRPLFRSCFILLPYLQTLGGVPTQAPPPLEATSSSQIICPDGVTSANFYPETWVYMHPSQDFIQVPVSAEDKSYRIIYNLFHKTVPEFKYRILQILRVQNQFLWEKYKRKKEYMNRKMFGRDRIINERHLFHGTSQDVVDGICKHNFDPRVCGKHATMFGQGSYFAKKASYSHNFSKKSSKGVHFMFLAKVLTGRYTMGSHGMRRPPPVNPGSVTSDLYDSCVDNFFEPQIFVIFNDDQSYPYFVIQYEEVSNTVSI
Source text: as §1

Poly [ADP-ribose] polymerase 1, sequence (P09874 whole entry): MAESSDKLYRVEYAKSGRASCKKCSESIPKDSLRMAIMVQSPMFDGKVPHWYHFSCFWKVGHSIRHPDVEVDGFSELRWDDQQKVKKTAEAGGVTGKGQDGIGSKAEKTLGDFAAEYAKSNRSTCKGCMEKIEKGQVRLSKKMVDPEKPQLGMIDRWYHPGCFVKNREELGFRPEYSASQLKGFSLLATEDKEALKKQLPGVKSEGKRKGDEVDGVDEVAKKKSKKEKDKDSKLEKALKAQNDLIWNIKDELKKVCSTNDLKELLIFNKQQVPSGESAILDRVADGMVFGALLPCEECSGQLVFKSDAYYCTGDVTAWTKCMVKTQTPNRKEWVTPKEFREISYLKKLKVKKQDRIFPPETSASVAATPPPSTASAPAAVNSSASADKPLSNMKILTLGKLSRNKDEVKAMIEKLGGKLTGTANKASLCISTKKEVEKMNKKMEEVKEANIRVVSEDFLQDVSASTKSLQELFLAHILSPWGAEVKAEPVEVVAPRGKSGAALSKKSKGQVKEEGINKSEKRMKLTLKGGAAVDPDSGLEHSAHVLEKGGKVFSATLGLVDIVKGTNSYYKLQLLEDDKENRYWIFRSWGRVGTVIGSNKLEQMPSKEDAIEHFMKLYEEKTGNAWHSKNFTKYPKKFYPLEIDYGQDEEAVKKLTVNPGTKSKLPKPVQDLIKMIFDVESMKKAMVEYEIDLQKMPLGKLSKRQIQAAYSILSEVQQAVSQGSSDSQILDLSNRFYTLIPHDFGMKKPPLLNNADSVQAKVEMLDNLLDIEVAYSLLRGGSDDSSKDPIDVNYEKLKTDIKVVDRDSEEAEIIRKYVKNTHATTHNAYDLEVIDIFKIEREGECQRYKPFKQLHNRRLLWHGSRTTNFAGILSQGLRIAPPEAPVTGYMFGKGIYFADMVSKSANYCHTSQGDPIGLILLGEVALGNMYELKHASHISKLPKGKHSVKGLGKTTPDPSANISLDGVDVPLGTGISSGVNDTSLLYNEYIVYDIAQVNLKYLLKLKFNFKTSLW

| SMILES | IC50 [1] | IC50 [2] |
| --- | --- | --- |
| O=C(CC[C@@H]1C[C@H](Oc2cc(F)cc(F)c2)CN1c1cc(C(F)(F)F)c(=O)[nH]n1)N1CCN(c2ncc(C(F)(F)F)cn2)CC1 [US20240294509, Compound 55] | 15600 nM | 82 nM |
| O=C(CC[C@@H]1C[C@@H](Oc2ccc(F)cc2F)CN1c1cc(C(F)(F)F)c(=O)[nH]n1)N1CCN(c2ncc(C(F)(F)F)cn2)CC1 [US20240294509, Compound 50] | 15 nM | 13 nM |
| O=C(CC[C@@H]1CCCN1c1cc(C(F)(F)F)c(=O)[nH]n1)N1CCN(c2ncc(C(F)(F)F)cn2)CC1 | 1.3 nM | 2.9 nM |
| O=C(COC[C@@H]1CCCN1c1cc(C(F)(F)F)c(=O)[nH]n1)N1CCN(c2ncc(C(F)(F)F)cn2)CC1 [US20240294509, Compound 1] | 293 nM | 4 nM |
| O=C(CC[C@@H]1C[C@@H](Oc2cncnc2)CN1c1cc(C(F)(F)F)c(=O)[nH]n1)N1CCN(c2ncc(C(F)(F)F)cn2)CC1 [US20240294509, Compound 63] | 179 nM | 3 nM |
| O=C(CC[C@@H]1C[C@@H](Oc2cccc(Cl)c2)CN1c1cc(C(F)(F)F)c(=O)[nH]n1)N1CCN(c2ncc(C(F)(F)F)cn2)CC1 [US20240294509, Compound 49] | 79 nM | 26 nM |
| O=C(CC[C@@H]1C[C@H](Oc2ccc(F)c(F)c2)CN1c1cc(C(F)(F)F)c(=O)[nH]n1)N1CCN(c2ncc(C(F)(F)F)cn2)CC1 [US20240294509, Compound 58] | 3190 nM | 54 nM |
| O=C(CC[C@@H]1C[C@H](Oc2ccccc2)CN1c1cc(C(F)(F)F)c(=O)[nH]n1)N1CCN(c2ncc(C(F)(F)F)cn2)CC1 [US20240294509, Compound 19] | 2020 nM | 4.4 nM |
| O=C(CC[C@@H]1C[C@@H](F)CN1c1cc(C(F)(F)F)c(=O)[nH]n1)N1CCN(c2ncc(C(F)(F)F)cn2)CC1 [US20240294509, Compound 20] | 49 nM | 3.2 nM |
